Experimental findings from patent US9187472B2 (AbbVie Inc., priority 2012, dated 2015) are described below.

A word on the IC50: it is the concentration at which inhibition is half-maximal. A higher IC50 goes with weaker potency in that assay.

For the first experiment, the system named is PC3 cells. The experiment is described as follows: NAMPT Cell Proliferation Assay. Particulars: 5 days incubation, cell viability by Cell Titer Glo. Type of experiment: cell-based. On the procedure: NAMPT Cell Proliferation Assay
PC3 cells were seeded in 96-well black plates (Corning #3904) at 500 cells/well in 90 μl of RPMI media containing 10% heat-inactivated FBS and incubated overnight at 37° C. and 5% CO2 to allow cells to attach to wells. The following day, test compounds were serially diluted in neat DMSO to 1000× final concentrations prior to dilution with RPMI media to 10× and 1% DMSO. Ten μL of the 10× compounds were then transferred to wells containing cells to produce a dose response of 10-fold dilutions from 10 μM to 1×10^−5 μM. Cells were incubated for 5 days at 37° C. and 5% CO2, then cell viability was measured using Cell Titer Glo reagent (Promega #G7571). Percent inhibition values were calculated and fitted to a sigmoidal dose response curves using Assay Explorer software to determine IC50s.
Background: In ATP-based viability assays light output follows the ATP content of the culture.
Regarding `Cc1nc(C(=O)N2CCC(c3ccc(C(=O)NCc4ccn5ccnc5c4)cc3)CC2)c2n1CCCC2` [Example 1099, Example 1099 N-(imidazo[1,2-a]pyridin-7-ylmethyl)-4-{1-[(3-meth-5,6,7,8-tetrahydroimidazo[1,5-a]pyridin-1-yl)carbonyl]piperidin-4-yl}benzamide], it took 15.6 nM to reach half-maximal inhibition (IC50).

Staying with this experiment, now noted: Homo sapiens, PC-3, 120 h, 5 days incubation, cell viability by Cell Titer Glo.
Regarding `O=C(NCc1ccn2ccnc2c1)c1ccc(-c2cnn(CC34CC5CC(CC(C5)C3)C4)c2)s1` [Example 884], half-maximal inhibition (IC50) was put at 0.968 nM.

Molecule `COc1ccccc1C(=O)Nc1ccc(C(=O)NCc2ccn3ccnc3c2)cc1` [Example 880, N-{4-[(imidazo[1,2-a]pyridin-7-ylmethyl)carbamoyl]phenyl}-2-methoxybenzamide] displayed an IC50 of 750 nM.

In turn, `O=C(NCc1ccn2ccnc2c1)Nc1ccc(C2CCN(C(=O)c3ccccc3)CC2)cc1F` [Example 1069, 1-[4-(1-benzoylpiperidin-4-yl)-2-fluorophenyl]-3-(imidazo[1,2-a]pyridin-7-ylmethyl)urea] gave an IC50 of 1.23 nM.

Turning to `O=C(NCc1cn2ccnc2cn1)c1ccc(C2CCN(C(=O)CC(F)(F)F)CC2)cc1F` [Example 1161, 2-fluoro-N-(imidazo[1,2-a]pyrazin-6-ylmethyl)-4-[1-(3,3,3-trifluoropropanoyl)piperidin-4-yl]benzamide], the IC50 is 61 nM.

Molecule `O=C(NCc1ccn2ccnc2c1)c1ccc(C2CCN(C(=O)c3cc(F)ccc3F)CC2)s1` [Example 887, 5-[1-(2,5-difluorobenzoyl)piperidin-4-yl]-N-(imidazo[1,2-a]pyridin-7-ylmethyl)thiophene-2-carboxamide] had a 50% inhibitory concentration (IC50) of 0.214 nM.

The molecule `CC(C)C1CC(C(=O)N2CCC(c3ccc(C(=O)NCc4ccn5ccnc5c4)cc3)CC2)CCO1` (stereo not shown) [Example 1008, N-(imidazo[1,2-a]pyridin-7-ylmethyl)-4-(1-{[2-(propan-2-yl)tetrahydro-2H-pyran-4-yl]carbonyl}piperidin-4-yl)benzamide] displayed an IC50 of 2.94 nM.

Take `O=C(NCc1ccn2ccnc2c1)c1ccc(-c2cnn(Cc3ccccc3)c2)s1` [Example 885, 5-(1-benzyl-1H-pyrazol-4-yl)-N-(imidazo[1,2-a]pyridin-7-ylmethyl)thiophene-2-carboxamide]: the IC50 was determined as 5.33 nM.

Molecule `Cc1cccn2cc(C(=O)N3CCC(c4ccc(C(=O)NCc5ccn6ccnc6c5)cc4)CC3)nc12` [Example 992, N-(imidazo[1,2-a]pyridin-7-ylmethyl)-4-{1-[(8-methylimidazo[1,2-a]pyridin-2-yl)carbonyl]piperidin-4-yl}benzamide] had an IC50 of 584 nM.

Consider `O=C(NCc1ccn2ccnc2c1)c1ccc(C2CCN(C(=O)c3ccnn3C(F)F)CC2)cc1` [Example 969, 4-(1-{[1-(difluoromethyl)-1H-pyrazol-5-yl]carbonyl}piperidin-4-yl)-N-(imidazo[1,2-a]pyridin-7-ylmethyl)benzamide], for which the IC50 is 6.36 nM.

The molecule `O=C(NCc1ccn2ccnc2c1)Nc1ccc(C2CCN(C(=O)C3CC=CCC3)CC2)cc1` (stereo not shown) [Example 945, 1-{4-[1-(cyclohex-3-en-1-ylcarbonyl)piperidin-4-yl]phenyl}-3-(imidazo[1,2-a]pyridin-7-ylmethyl)urea] yielded an IC50 of 2.38 nM.

On to `COc1ccccc1CC(=O)Nc1ccc(C(=O)NCc2ccn3ccnc3c2)cc1` [Example 867, N-(imidazo[1,2-a]pyridin-7-ylmethyl)-4-{[(2-methoxyphenyl)acetyl]amino}benzamide], for which half-maximal inhibition (IC50) required 68.7 nM.

Regarding `O=C(NCc1ccn2ccnc2c1)Nc1ccc(C2CCN(C(=O)C3Cc4ccccc4O3)CC2)cc1` (stereo not shown) [Example 1024, 1-{4-[1-(2,3-dihydro-1-benzofuran-2-ylcarbonyl)piperidin-4-yl]phenyl}-3-(imidazo[1,2-a]pyridin-7-ylmethyl)urea], the IC50 turned out to be 3.52 nM.

The molecule `CCn1ncc(Cl)c1C(=O)N1CCC(c2ccc(NC(=O)NCc3ccn4ccnc4c3)cc2)CC1` [Example 1047, 1-(4-{1-[(4-chloro-1-ethyl-1H-pyrazol-5-yl)carbonyl]piperidin-4-yl}phenyl)-3-(imidazo[1,2-a]pyridin-7-ylmethyl)urea] displayed an IC50 of 0.205 nM.

Take `O=C(NCc1ccc2ncnn2c1)c1ccc(C2CCN(C(=O)CCC(F)(F)F)CC2)s1` [Example 847, N-([1,2,4]triazolo[1,5-a]pyridin-6-ylmethyl)-5-[1-(4,4,4-trifluorobutanoyl)piperidin-4-yl]thiophene-2-carboxamide]: the IC50 came out at 93.6 nM.

In turn, `O=C(NCc1ccn2ccnc2c1)Nc1ccc(C2CCN(C(=O)Cc3c[nH]c4ccccc34)CC2)cc1` [Example 956, 1-(imidazo[1,2-a]pyridin-7-ylmethyl)-3-{4-[1-(1H-indol-3-ylacetyl)piperidin-4-yl]phenyl}urea] showed an IC50 of 8.83 nM.

Consider `O=C(NCc1ccn2ccnc2c1)c1ccc(C2CCN(C(=O)c3cccc4ncsc34)CC2)cc1` [Example 1010, 4-[1-(1,3-benzothiazol-7-ylcarbonyl)piperidin-4-yl]-N-(imidazo[1,2-a]pyridin-7-ylmethyl)benzamide], for which the IC50 was determined as 5.8 nM.

`CC(C)(C)OC(=O)N1CCC(c2ccc(NC(=O)Cc3ccn4ccnc4c3)c(F)c2)CC1` [Example 1067, tert-butyl 4-{3-fluoro-4-[(imidazo[1,2-a]pyridin-7-ylacetyl)amino]phenyl}piperidine-1-carboxylate] came in with an IC50 of 370 nM.

The molecule `O=C(NCc1ccn2ccnc2c1)Nc1ccc(C2CCN(C(=O)c3cnc4c(c3)CCCC4)CC2)cc1` [Example 1035, 1-(imidazo[1,2-a]pyridin-7-ylmethyl)-3-{4-[1-(5,6,7,8-tetrahydroquinolin-3-ylcarbonyl)piperidin-4-yl]phenyl}urea] displayed an IC50 of 3.04 nM.

As to `O=C(NCc1ccn2ccnc2c1)Nc1ccc(C2CCN(C(=O)c3ccnc(Cl)c3F)CC2)cc1` [Example 1018, 1-(4-{1-[(2-chloro-3-fluoropyridin-4-yl)carbonyl]piperidin-4-yl}phenyl)-3-(imidazo[1,2-a]pyridin-7-ylmethyl)urea], the IC50 came to 1.64 nM.

In turn, `O=C(NCc1ccn2ccnc2c1)c1ccc(C2CCN(C(=O)COC3CCCCC3)CC2)cc1` [Example 971, 4-{1-[(cyclohexyloxy)acetyl]piperidin-4-yl}-N-(imidazo[1,2-a]pyridin-7-ylmethyl)benzamide] yielded an IC50 of 22.6 nM.

The molecule `O=C(NCc1ccn2ccnc2c1)Nc1ccc(C2CCN(C(=O)c3ccc4ccncc4c3)CC2)cc1` [Example 1037, 1-(imidazo[1,2-a]pyridin-7-ylmethyl)-3-{4-[1-(isoquinolin-7-ylcarbonyl)piperidin-4-yl]phenyl}urea] had an IC50 of 7.76 nM.

`O=C(NCc1ccn2ccnc2c1)c1ccc(C2CCN(C(=O)N3CCCC3)CC2)cc1` [Example 958, N-(imidazo[1,2-a]pyridin-7-ylmethyl)-4-[1-(pyrrolidin-1-ylcarbonyl)piperidin-4-yl]benzamide] gave an IC50 of 21.4 nM.

The molecule `CC(C)CCC(=O)N1CCC(c2ccc(NC(=O)NCc3ccn4ccnc4c3)c(F)c2)CC1` [Example 1072, 1-{2-fluoro-4-[1-(4-methylpentanoyl)piperidin-4-yl]phenyl}-3-(imidazo[1,2-a]pyridin-7-ylmethyl)urea] displayed an IC50 of 6.24 nM.

Turning to `CCC(CC)C(=O)N1CCC(c2ccc(NC(=O)NCc3ccn4ccnc4c3)cc2)CC1` [Example 942, 1-{4-[1-(2-ethylbutanoyl)piperidin-4-yl]phenyl}-3-(imidazo[1,2-a]pyridin-7-ylmethyl)urea], it took 1.02 nM to reach half-maximal inhibition (IC50).
